Reference: US20260034094A1, “COMPOSITIONS AND METHODS FOR INDUCING FERROPTOSIS” (Kojin Therapeutics, Inc., priority 2022, published 2026)
Where two headings read alike, the source gives them in different places.

Experiments:
cancer cells = experiment: Cell line profiling with a ferroptosis-inducing agent with and without a rescue agent (CellTiter-Glo); format: cell-based, human; conditions: for fractional viability of cancer cells with fer-1 co-treatment: +1.5 μM fer-1
Description: Cell viability assays are performed by seeding 1,000 cells per well (30 μl volume) in opaque white 384-well plates (Corning). Cells are allowed to adhere for 24 h, after which they are exposed to compounds for 72 hours. DMSO stock solutions of compounds are added to cells using a CyBio Well Vario liquid dispenser (Analytik Jena AG). Cellular ATP levels are measured using CellTiter-Glo (Promega) as a surrogate for viability. Rescue assays are performed using rescue agents-ferrostatin-1 (fer-1, 1.5 μM), liproxstatin-1 (lip-1, 1 μM), deferoxamine (DFO, 50 μM), and other ferroptosis inhibitors added to cells at the time of addition to assay plates. Dose-response curves for BSO and RSL3 are shown in FIG. 4 with and without anti-ferroptosis rescue agent treatment (indicated as no treatment or +1.5 μM fer-1).

solid tumor animal model = experiment: Microdosing tumors with ferroptosis-inducing agents (implantable drug delivery system, cleaved caspase-3 / H&E staining); format: in vivo, C57BL6/J mice; conditions: for tumor response (cleaved caspase-3 staining: cell death, white blood cell recruitment): local sustained administration, 1-10 μM at the tumor site, 24 hours
Description: For the allograft study, cancer cell line-derived tumor cells were injected into the flanks of male C57BL6/J mice. Assays were initiated when the tumor diameter was approximately 6-7 mm.
Microdose drug delivery was performed for the assay described herein. The compounds in Table 22 were packed into device reservoirs using a tapered metal needle. Reservoirs were loaded for initial release of liproxstatin-1 (where included) followed by a 4-6 h delayed release of ferroptosis inducers. Devices were prepared for dose administration into mouse tumors. Devices delivered the ferroptosis inducing agent for 24-72 hours in the tissue. The tumor was then excised, and the tissue was snap frozen with liquid nitrogen. Tissue was sectioned using a standard cryotome, and tissue slices of 20 μm in thickness were collected from each reservoir for analysis by immunoassays, transcriptomics, and metabolomic assays.
A drug delivery system was applied to a: solid tumor animal model. Animals were administered (1) L-BSO or (2) L-BSO+liproxstatin-1 (lip-1) as a ferroptosis-rescue agent. Drugs were loaded into an implantable drug delivery system to achieve concentrations of 1-10 μM for both BSO+lip-1 at the tumor site. After 24 hours, tumors were removed and stained for cleaved caspase-3 to indicate cell death in the tumor (FIG. 2A). […] Therefore, ferroptosis can be induced by both local and systemic administration of BSO.
A drug delivery system was applied to a: solid tumor animal model. Animals were administered (1) ML-210 or (2) ML-210+liproxstatin-1 (lip-1), as a ferroptosis rescue agent. Drugs were loaded into an implantable drug delivery system to achieve concentrations of 1-10 μM for both ML-210 and ML-210+liproxstatin-1 (lip-1) at the tumor site. After 24 hours, tumors were removed and stained for cleaved caspase-3.
To achieve therapeutic doses of RSL3 in vivo, a drug delivery system was applied to a: solid tumor animal model. Animals were administered (1) RSL3 or (2) RSL3+liproxstatin (lip-1) as a ferroptosis rescue agent. Drugs were loaded into an implantable drug delivery system to achieve concentrations of 1-10 μM for both RSL-3 and RSL3 and lip-1 co-administration at the tumor site. After 24 hours of sustained administration, tumors were removed and stained for cleaved caspase-3 (FIG. 5A). Dashed lines indicate region of drug exposure.

human recombinant GCL = human recombinant GCL (Homo sapiens (Human), UniProt P48506); experiment: GCL enzyme profiling assay (ADP-Glo luminescence); format: biochemical; conditions: read-out: GCL IC50
Procedure, shortened: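 ADP-Glo luminescence readout; 5 nM enzyme preincubated 1 h at 22 °C with 0.6 mM ATP, then started with 1 mM glutamate and 1.2 mM α-aminobutyrate, stopped after 2 h. Buffer: HEPES pH 7.5, MgCl2, DTT, BSA, 0.2% F-127, 1% DMSO. IC50 from four-parameter logistic fit.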

RKN cells = experiment: RKN cell profiling assay (cell viability, CellTiter-Glo); format: cell-based; conditions: read-out: Cell Killing EC50
Procedure, shortened: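 Cells seeded at 1,000/well in F-12 with 10% FBS, left to adhere 24 h, then compound-treated for 96 h at 0.5% final DMSO. Viability by CellTiter-Glo luminescence; EC50 from four-parameter logistic fit. Ferroptosis rescue runs included 1.5 μM ferrostatin-1 added at seeding.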

[1] = human recombinant GCL 5 nM, 1 h preincubation with ATP

Chain of human recombinant GCL (P48506 whole entry): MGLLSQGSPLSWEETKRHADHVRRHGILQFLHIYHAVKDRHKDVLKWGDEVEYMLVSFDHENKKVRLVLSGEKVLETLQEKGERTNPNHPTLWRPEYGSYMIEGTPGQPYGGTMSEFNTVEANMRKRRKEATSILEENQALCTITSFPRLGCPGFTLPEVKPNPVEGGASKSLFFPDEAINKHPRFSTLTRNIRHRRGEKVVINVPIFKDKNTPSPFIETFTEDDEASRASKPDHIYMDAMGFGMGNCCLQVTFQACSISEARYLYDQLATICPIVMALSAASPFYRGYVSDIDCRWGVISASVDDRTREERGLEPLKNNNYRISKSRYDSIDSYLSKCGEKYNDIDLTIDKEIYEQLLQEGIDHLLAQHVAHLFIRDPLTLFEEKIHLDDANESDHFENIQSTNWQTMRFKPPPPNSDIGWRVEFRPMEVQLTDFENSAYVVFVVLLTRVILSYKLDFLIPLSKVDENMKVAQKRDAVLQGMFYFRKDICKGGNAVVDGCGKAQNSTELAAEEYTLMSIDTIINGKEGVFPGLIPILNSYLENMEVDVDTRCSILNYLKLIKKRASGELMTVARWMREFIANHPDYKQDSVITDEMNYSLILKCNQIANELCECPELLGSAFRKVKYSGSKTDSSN

Compound	IC50 (human recombinant GCL; [1])	EC50 (RKN cells; 96 h, 96 h exposure)	IC50 (human recombinant GCL; human recombinant GCL, ADP-Glo)	EC50 (RKN cells; cell viability)	also measured
CCOC(=O)c1ccc(NC2CCCCC2)c(N)c1 [Ferrostatin-1, ferrostatin-1]	–	–	–	–	rescue from cell death (cancer cells; RSL3 and BSO treated tumors in vivo, 1.5 μM fer-1): prevents cell death
COC(=O)c1ccc([C@H]2c3[nH]c4ccccc4c3C[C@H](C(=O)OC)N2C(=O)CCl)cc1 [RSL3, (1S,3R)-RSL3]	–	–	–	–	tumor response (cleaved caspase-3 staining: cell death, white blood cell recruitment) (solid tumor animal model): White blood cell recruitment and cell death were prominent; fractional viability of cancer cells with fer-1 co-treatment (cancer cells): reduction in the fractional viability of cancer cells; ferroptosis induction (cancer cells; dose-response, with and without 1.5 μM fer-1): robust inducer of ferroptosis
Cc1onc(C(=O)N2CCN(C(c3ccc(Cl)cc3)c3ccc(Cl)cc3)CC2)c1[N+](=O)[O-] [ML-210]	–	–	–	–	tumor response (cleaved caspase-3 staining: cell death, white blood cell recruitment) (solid tumor animal model): recruitment of white blood cells to the tumor indicating immune cell recruitment and cell death at the tumor site
CCCCS(=N)(=O)CC[C@H](N)C(=O)O (stereo partly shown) [BSO, buthionine sulfoximine]	–	–	–	–	fractional viability of tumor (solid tumor animal model; compared with BSO+fer-1 treated sections of the tumor): significant reductions in fractional viability; tumor response (cleaved caspase-3 staining: cell death, white blood cell recruitment) (solid tumor animal model): recruitment of white blood cells to the tumor indicating immune cell recruitment and cell death at the tumor site; fractional viability of cancer cells with fer-1 co-treatment (cancer cells): not observed
COC(=O)[C@@H](N)CCS(=N)(=O)CCc1nnn[nH]1 (stereo partly drawn) [Compound 69, (2S)-methyl 4-(2-(1H-tetrazol-5-yl)ethylsulfonimidoyl)-2-aminobutanoate]	> 2000 µM	≥ 1000 µM	–	–	–
COC(=O)[C@@H](N)CCS(=N)(=O)CCC1CCCC1 (stereo partly shown) [Compound 74]	20 to 2000 µM	< 1000 µM	–	–	–
N[C@@H](CCS(=O)(=O)CCC(O)(c1cc(-c2ccccc2)sn1)C(F)(F)F)C(=O)O (stereo partly shown) [Compound 377]	–	–	≤ 20 µM	≥ 1000 µM	–
CC(C)(C)CCS(=N)(=O)CC[C@H](N)C(=O)N1CCCC1 (stereo partly shown) [Compound 116]	> 2000 µM	≥ 1000 µM	–	–	–
Cc1ccc(Cl)c(CCS(=N)(=O)CC[C@H](N)C(=O)O)c1 (stereo partly shown) [Compound 39]	≤ 20 µM	≥ 1000 µM	–	–	–
N=S(=O)(CC[C@H](N)C(=O)O)CCC1(O)CC1 (stereo partly drawn) [Compound 135, (2S)-2-amino-4-(2-(1-hydroxycyclopropyl)ethylsulfonimidoyl)butanoic acid]	20 to 2000 µM	< 1000 µM	–	–	–
N=S(=O)(CCC(n1ccc(C2CC2)n1)C(F)(F)F)CC[C@H](N)C(=O)O (stereo partly shown) [Compound 413]	–	–	20 to 2000 µM	≥ 1000 µM	–
N[C@@H](CCS(=O)(=O)CCC(O)(c1ccc(-c2ccc(Cl)cc2Cl)cn1)C(F)(F)F)C(=O)O (stereo partly drawn) [Compound 460, (2S)-2-amino-4-[3-[5-(2,4-dichlorophenyl)-2-pyridyl]-4,4,4-trifluoro-3-hydroxy-butyl]sulfonyl-butanoic acid]	–	–	≤ 20 µM	< 1000 µM	–
CCOC(=O)[C@@H](N)CC[S@@](=N)(=O)CC[C@](O)(c1ccccc1)C(F)(F)F [Compound 488, ethyl (S)-2-amino-4-((R,3S)-4,4,4-trifluoro-3-hydroxy-3-phenylbutylsulfonimidoyl)butanoate]	–	–	20 to 2000 µM	< 1000 µM	–
N=S(=O)(CC[C@H](N)C(=O)O)CCC(O)(c1ncc2ccccc2n1)C(F)(F)F (stereo partly shown) [Compound 374]	–	–	20 to 2000 µM	< 1000 µM	–
CC(C)(C)CCS(=N)(=O)CC[C@H](N)C(=O)Nc1cccnc1 (stereo partly drawn) [Compound 101, (2S)-2-amino-4-(3,3-dimethylbutylsulfonimidoyl)-N-(pyridin-3-yl)butanamide]	> 2000 µM	< 1000 µM	–	–	–
CC(C)(C)CCS(=N)(=O)CC[C@H](N)C(=O)NC(C)(C)C (stereo partly shown) [Compound 117]	> 2000 µM	≥ 1000 µM	–	–	–
N=S(=O)(CC[C@H](N)C(=O)O)CCC(O)(c1ccccn1)C(F)(F)F (stereo partly drawn) [Compound 350, (2S)-2-amino-4-(4,4,4-trifluoro-3-hydroxy-3-(pyridin-2-yl)butylsulfonimidoyl)butanoic acid]	–	–	≤ 20 µM	< 1000 µM	–
N=S(=O)(CCC(c1ccc(-c2ccccc2Cl)cc1)C(F)(F)F)CC[C@H](N)C(=O)O (single isomer, unassigned) [Compound 218]	–	–	20 to 2000 µM	≥ 1000 µM	–
N=S(=O)(CC[C@H](N)C(=O)O)CCC(O)(c1ccc(Oc2ccc(Cl)cc2Cl)cn1)C(F)(F)F (stereo partly shown) [Compound 380]	–	–	≤ 20 µM	< 1000 µM	–
N=S(=O)(CC[C@H](N)C(=O)O)CCC(O)(c1ccc(-c2ccc(Cl)cc2Cl)cn1)C(F)(F)F (stereo partly shown) [Compound 463]	–	–	≤ 20 µM	< 1000 µM	–
N=S(=O)(CCC(c1ccc2[nH]ncc2c1)C(F)(F)F)CC[C@H](N)C(=O)O (stereo partly drawn) [Compound 386, (2S)-2-amino-4-(4,4,4-trifluoro-3-(1H-indazol-5-yl)butylsulfonimidoyl)butanoic acid]	–	–	≤ 20 µM	< 1000 µM	–
CC(C)(C)c1nnc(-c2ccc(C(O)(CCS(=N)(=O)CC[C@H](N)C(=O)O)C(F)(F)F)cc2)o1 (stereo partly shown) [Compound 445]	–	–	20 to 2000 µM	≥ 1000 µM	–
C[C@](O)(CCS(=N)(=O)CC[C@H](N)C(=O)O)C(F)(F)F (single isomer, unassigned) [Compound 325]	–	–	> 2000 µM	≥ 1000 µM	–
N=S(=O)(CC[C@H](N)C(=O)O)CCC1(C(N)=O)CCC1 (stereo partly drawn) [Compound 188, (2S)-2-amino-4-(2-(1-carbamoylcyclobutyl)ethylsulfonimidoyl)butanoic acid]	20 to 2000 µM	< 1000 µM	–	–	–
N=[S@@](=O)(CC[C@H](N)C(=O)O)CCC1(c2ccccc2)CCC1 (single isomer, unassigned) [Compound 392]	–	–	≤ 20 µM	< 1000 µM	–
COc1cncc(-c2ccc(C(CCS(=N)(=O)CC[C@H](N)C(=O)O)C(F)(F)F)cc2)c1 (stereo partly shown) [Compound 242]	–	–	≤ 20 µM	≥ 1000 µM	–
N=S(=O)(CCc1ccccc1Cl)CC[C@H](N)C(=O)O (stereo partly shown) [Compound 19]	≤ 20 µM	< 1000 µM	–	–	–
CC(C)(CCS(=N)(=O)CC[C@H](N)C(=O)O)c1ccccc1F (stereo partly shown) [Compound 59]	≤ 20 µM	< 1000 µM	–	–	–
CNC(=O)C(CCS(=N)(=O)CC[C@H](N)C(=O)O)C(F)(F)F (stereo partly shown) [Compound 307]	–	–	20 to 2000 µM	< 1000 µM	–
